Legend:
Experiment in all cases: relative viability (nuclei count vs DMSO), 5 days (fraction); higher = more cells survive
Obatoclax + Lapatinib = compound: COC1=CC(c2cc3ccccc3[nH]2)=N/C1=C\c1[nH]c(C)cc1C [Obatoclax] + CS(=O)(=O)CCNCc1ccc(-c2ccc3ncnc(Nc4ccc(OCc5cccc(F)c5)c(Cl)c4)c3c2)o1 [Lapatinib] (partner 2 µM)
Outline: (§1)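 Lung cancer cell lines in 1536-well plates got either a single drug or a fixed anchor-drug dose together with five library-drug doses (not always all listed) in √10 steps, by pin tool, on the day after seeding. Nuclei were counted after 5 days, and relative viability is the treated-to-vehicle ratio of nuclei counts. Values are medians of duplicate plates.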

[1] = compound: CC1=CC(=NN1)NC2=CC(=NC(=N2)/C=C/C3=CC=CC=C3)N4CCN(CC4)C + Nc1ncn([C@H]2C[C@H](O)[C@@H](CO)O2)c(=O)n1 [Decitabine] (partner 2 µM)
Outline: as §1

[2] = compound: CC1=CC(=NN1)NC2=CC(=NC(=N2)/C=C/C3=CC=CC=C3)N4CCN(CC4)C + Cc1nc(Nc2ncc(C(=O)Nc3c(C)cccc3Cl)s2)cc(N2CCN(CCO)CC2)n1 [Dasatinib] (partner 0.075 µM)
Outline: as §1

Bortezomib + OSI-027 = compound: CC(C)C[C@H](NC(=O)[C@H](Cc1ccccc1)NC(=O)c1cnccn1)B(O)O [Bortezomib] + COc1cccc2cc(-c3nc([C@H]4CC[C@H](C(=O)O)CC4)n4ncnc(N)c34)[nH]c12 [OSI-027] (partner 0.5 µM)
Outline: as §1

Cell Line: H3255
- relative viability (Obatoclax + Lapatinib; first compound 0.01 µM): 0.51
- relative viability (Obatoclax + Lapatinib; first compound 0.03162 µM): 0.244
- relative viability (Obatoclax + Lapatinib; first compound 0.1 µM): 0.327
- relative viability (Obatoclax + Lapatinib; first compound 0.3162 µM): 0.256
- relative viability (Obatoclax + Lapatinib; first compound 1 µM): 0.315
- relative viability ([1]; first compound 0.08 µM): 0.52
- relative viability ([1]; first compound 0.253 µM): 0.54
- relative viability ([1]; first compound 0.8 µM): 0.496
- relative viability ([1]; first compound 2.53 µM): 0.499
- relative viability ([1]; first compound 8 µM): 0.249
- relative viability ([2]; first compound 0.08 µM): 0.346
- relative viability ([2]; first compound 0.253 µM): 0.347
- relative viability ([2]; first compound 0.8 µM): 0.352
- relative viability ([2]; first compound 2.53 µM): 0.427
- relative viability ([2]; first compound 8 µM): 0.242
- relative viability (Bortezomib + OSI-027; first compound 0.0002 µM): 0.593
- relative viability (Bortezomib + OSI-027; first compound 0.000632 µM): 0.601
- relative viability (Bortezomib + OSI-027; first compound 0.002 µM): 0.466
- relative viability (Bortezomib + OSI-027; first compound 0.006325 µM): 0.352
- relative viability (Bortezomib + OSI-027; first compound 0.02 µM): 0.28

Cell Line: HCC-78
- relative viability (Obatoclax + Lapatinib; first compound 0.01 µM): 0.937
- relative viability (Obatoclax + Lapatinib; first compound 0.03162 µM): 0.64
- relative viability (Obatoclax + Lapatinib; first compound 0.3162 µM): 0.579
- relative viability (Obatoclax + Lapatinib; first compound 1 µM): 0.844
- relative viability ([1]; first compound 0.08 µM): 0.585
- relative viability ([1]; first compound 0.253 µM): 0.624
- relative viability ([1]; first compound 0.8 µM): 0.694
- relative viability ([1]; first compound 2.53 µM): 0.472
- relative viability ([1]; first compound 8 µM): 0.292
- relative viability ([2]; first compound 0.08 µM): 0.444
- relative viability ([2]; first compound 0.253 µM): 0.436
- relative viability ([2]; first compound 0.8 µM): 0.469
- relative viability ([2]; first compound 2.53 µM): 0.234
- relative viability ([2]; first compound 8 µM): 0.221
- relative viability (Bortezomib + OSI-027; first compound 0.0002 µM): 0.36
- relative viability (Bortezomib + OSI-027; first compound 0.000632 µM): 0.352
- relative viability (Bortezomib + OSI-027; first compound 0.002 µM): 0.372
- relative viability (Bortezomib + OSI-027; first compound 0.006325 µM): 0.385
- relative viability (Bortezomib + OSI-027; first compound 0.02 µM): 0.263

Cell Line: EBC-1
- relative viability (Obatoclax + Lapatinib; first compound 0.01 µM): 0.204
- relative viability (Obatoclax + Lapatinib; first compound 0.03162 µM): 0.213
- relative viability (Obatoclax + Lapatinib; first compound 0.1 µM): 0.227
- relative viability (Obatoclax + Lapatinib; first compound 0.3162 µM): 0.182
- relative viability (Obatoclax + Lapatinib; first compound 1 µM): 0.189

Cell Line: NCI-H2405
- relative viability (Obatoclax + Lapatinib; first compound 0.01 µM): 1.05
- relative viability (Obatoclax + Lapatinib; first compound 0.03162 µM): 1.26
- relative viability (Obatoclax + Lapatinib; first compound 0.3162 µM): 1.08
- relative viability (Obatoclax + Lapatinib; first compound 1 µM): 1.13
- relative viability ([1]; first compound 0.08 µM): 0.758
- relative viability ([1]; first compound 0.253 µM): 0.618
- relative viability ([1]; first compound 0.8 µM): 0.687
- relative viability ([1]; first compound 2.53 µM): 0.615
- relative viability ([1]; first compound 8 µM): 0.171
- relative viability ([2]; first compound 0.08 µM): 0.227
- relative viability ([2]; first compound 0.253 µM): 0.216
- relative viability ([2]; first compound 0.8 µM): 0.206
- relative viability ([2]; first compound 2.53 µM): 0.165
- relative viability ([2]; first compound 8 µM): 0.109
- relative viability (Bortezomib + OSI-027; first compound 0.0002 µM): 0.635
- relative viability (Bortezomib + OSI-027; first compound 0.000632 µM): 0.589
- relative viability (Bortezomib + OSI-027; first compound 0.002 µM): 0.661
- relative viability (Bortezomib + OSI-027; first compound 0.006325 µM): 0.319
- relative viability (Bortezomib + OSI-027; first compound 0.02 µM): 0.205

Cell Line: A549
- relative viability (Obatoclax + Lapatinib; first compound 0.01 µM): 0.933
- relative viability (Obatoclax + Lapatinib; first compound 0.03162 µM): 1.1
- relative viability (Obatoclax + Lapatinib; first compound 0.1 µM): 0.997
- relative viability (Obatoclax + Lapatinib; first compound 0.3162 µM): 0.966
- relative viability (Obatoclax + Lapatinib; first compound 1 µM): 0.125
- relative viability ([1]; first compound 0.08 µM): 0.21
- relative viability ([1]; first compound 0.253 µM): 0.394
- relative viability ([1]; first compound 0.8 µM): 0.212
- relative viability ([1]; first compound 2.53 µM): 0.104
- relative viability ([1]; first compound 8 µM): 0.0286

Cell Line: NCI-H3122
- relative viability (Obatoclax + Lapatinib; first compound 0.01 µM): 0.987
- relative viability (Obatoclax + Lapatinib; first compound 0.03162 µM): 1.05
- relative viability (Obatoclax + Lapatinib; first compound 0.1 µM): 0.964
- relative viability (Obatoclax + Lapatinib; first compound 0.3162 µM): 1.03
- relative viability (Obatoclax + Lapatinib; first compound 1 µM): 1.03
- relative viability ([1]; first compound 0.08 µM): 0.372
- relative viability ([1]; first compound 0.253 µM): 0.364
- relative viability ([1]; first compound 0.8 µM): 0.46
- relative viability ([1]; first compound 2.53 µM): 0.379
- relative viability ([1]; first compound 8 µM): 0.298
- relative viability ([2]; first compound 0.08 µM): 0.9
- relative viability ([2]; first compound 0.253 µM): 0.633
- relative viability ([2]; first compound 0.8 µM): 0.811
- relative viability ([2]; first compound 2.53 µM): 0.551
- relative viability ([2]; first compound 8 µM): 0.176
- relative viability (Bortezomib + OSI-027; first compound 0.0002 µM): 0.993
- relative viability (Bortezomib + OSI-027; first compound 0.000632 µM): 1.03
- relative viability (Bortezomib + OSI-027; first compound 0.002 µM): 0.935
- relative viability (Bortezomib + OSI-027; first compound 0.006325 µM): 0.206
- relative viability (Bortezomib + OSI-027; first compound 0.02 µM): 0.133

Cell Line: NCI-H1563
- relative viability (Obatoclax + Lapatinib; first compound 0.01 µM): 0.902
- relative viability (Obatoclax + Lapatinib; first compound 0.03162 µM): 1.16
- relative viability (Obatoclax + Lapatinib; first compound 0.1 µM): 0.955
- relative viability (Obatoclax + Lapatinib; first compound 0.3162 µM): 0.794
- relative viability (Obatoclax + Lapatinib; first compound 1 µM): 0.711
- relative viability ([2]; first compound 0.08 µM): 0.462
- relative viability ([2]; first compound 0.253 µM): 0.463
- relative viability ([2]; first compound 0.8 µM): 0.497
- relative viability ([2]; first compound 2.53 µM): 0.432
- relative viability ([2]; first compound 8 µM): 0.288
- relative viability (Bortezomib + OSI-027; first compound 0.0002 µM): 0.795
- relative viability (Bortezomib + OSI-027; first compound 0.000632 µM): 0.751
- relative viability (Bortezomib + OSI-027; first compound 0.002 µM): 0.653
- relative viability (Bortezomib + OSI-027; first compound 0.006325 µM): 0.519
- relative viability (Bortezomib + OSI-027; first compound 0.02 µM): 0.485

Cell Line: HCC-44
- relative viability (Obatoclax + Lapatinib; first compound 0.01 µM): 1.08
- relative viability (Obatoclax + Lapatinib; first compound 0.03162 µM): 0.891
- relative viability (Obatoclax + Lapatinib; first compound 0.1 µM): 0.955
- relative viability (Obatoclax + Lapatinib; first compound 0.3162 µM): 0.876
- relative viability (Obatoclax + Lapatinib; first compound 1 µM): 0.37
- relative viability ([1]; first compound 0.08 µM): 0.967
- relative viability ([1]; first compound 0.253 µM): 0.965
- relative viability ([1]; first compound 0.8 µM): 0.909
- relative viability ([1]; first compound 2.53 µM): 0.87
- relative viability ([1]; first compound 8 µM): 0.845
- relative viability (Bortezomib + OSI-027; first compound 0.0002 µM): 0.462
- relative viability (Bortezomib + OSI-027; first compound 0.000632 µM): 0.523
- relative viability (Bortezomib + OSI-027; first compound 0.002 µM): 0.472
- relative viability (Bortezomib + OSI-027; first compound 0.006325 µM): 0.252
- relative viability (Bortezomib + OSI-027; first compound 0.02 µM): 0.197

Cell Line: PC-3 [JPC-3]
- relative viability (Obatoclax + Lapatinib; first compound 0.01 µM): 0.456
- relative viability (Obatoclax + Lapatinib; first compound 0.03162 µM): 0.406
- relative viability (Obatoclax + Lapatinib; first compound 0.1 µM): 0.469
- relative viability (Obatoclax + Lapatinib; first compound 0.3162 µM): 0.443
- relative viability (Obatoclax + Lapatinib; first compound 1 µM): 0.457
- relative viability ([1]; first compound 0.08 µM): 0.807
- relative viability ([1]; first compound 0.253 µM): 0.882
- relative viability ([1]; first compound 0.8 µM): 0.806
- relative viability ([1]; first compound 2.53 µM): 0.834
- relative viability ([1]; first compound 8 µM): 0.543
- relative viability ([2]; first compound 0.08 µM): 0.931
- relative viability ([2]; first compound 0.253 µM): 1.04
- relative viability ([2]; first compound 0.8 µM): 0.978
- relative viability ([2]; first compound 2.53 µM): 0.948
- relative viability ([2]; first compound 8 µM): 0.802
- relative viability (Bortezomib + OSI-027; first compound 0.0002 µM): 0.807
- relative viability (Bortezomib + OSI-027; first compound 0.000632 µM): 0.824
- relative viability (Bortezomib + OSI-027; first compound 0.002 µM): 0.806
- relative viability (Bortezomib + OSI-027; first compound 0.006325 µM): 0.446
- relative viability (Bortezomib + OSI-027; first compound 0.02 µM): 0.122

Cell Line: NCI-H1993
- relative viability (Obatoclax + Lapatinib; first compound 0.01 µM): 0.809
- relative viability (Obatoclax + Lapatinib; first compound 0.03162 µM): 0.771
- relative viability (Obatoclax + Lapatinib; first compound 0.1 µM): 0.835
- relative viability (Obatoclax + Lapatinib; first compound 0.3162 µM): 0.755
- relative viability (Obatoclax + Lapatinib; first compound 1 µM): 0.865
- relative viability ([1]; first compound 0.08 µM): 0.526
- relative viability ([1]; first compound 0.253 µM): 0.598
- relative viability ([1]; first compound 0.8 µM): 0.616
- relative viability ([1]; first compound 2.53 µM): 0.47
- relative viability ([1]; first compound 8 µM): 0.445
- relative viability ([2]; first compound 0.08 µM): 0.613
- relative viability ([2]; first compound 0.253 µM): 0.527
- relative viability ([2]; first compound 0.8 µM): 0.565
- relative viability ([2]; first compound 2.53 µM): 0.44
- relative viability ([2]; first compound 8 µM): 0.37
- relative viability (Bortezomib + OSI-027; first compound 0.0002 µM): 0.508
- relative viability (Bortezomib + OSI-027; first compound 0.000632 µM): 0.552
- relative viability (Bortezomib + OSI-027; first compound 0.002 µM): 0.546
- relative viability (Bortezomib + OSI-027; first compound 0.006325 µM): 0.47
- relative viability (Bortezomib + OSI-027; first compound 0.02 µM): 0.53

— the supplement of paper PMC10307832
